The target in experiment [1] is T1, S1P1 (Homo sapiens (Human), UniProt P21453). The experiment is described as follows: S1P1 Binding Assay (33P-S1P ligand competition, CHO membranes). The conditions noted are these: membranes from CHO cells expressing human S1P1. Here is the method:
Membranes were prepared from CHO cells expressing human S1P1. Cells pellets (1×10^9 cells/pellet) were suspended in buffer containing 20 mM HEPES (4-(2-hydroxyethyl)-1-piperazineethanesulfonic acid), pH 7.5, 50 mM NaCl, 2 mM EDTA (ethylenediamine tetraacetic acid) and Protease Inhibitor cocktail (Roche), and disrupted on ice using the Polytron homogenizer. The homogenate was centrifuged at 20,000 rpm (48,000 g) and the supernatant was discarded. The membrane pellets were resuspended in buffer containing 50 mM HEPES, pH 7.5, 100 mM NaCl, 1 mM MgCl2, 2 mM EDTA and stored in aliquots at −80° C. after protein concentration determination.
Membranes (2 μg/well) and 0.03 nM final concentration of ^33P-S1P ligand (1 mCi/ml, Perkin Elmer or American Radiolabeled Chemicals) diluted in assay buffer (50 mM HEPES, pH7.4, 5 mM MgCl2, 1 mM CaCl2), 0.5% fatty acid free BSA (bovine serum albumin), 1 mM NaF) were added to the compound plates (384 Falcon v-bottom plate (0.5 μl/well in a 11 point, 3-fold dilution). Binding was performed for 45 minutes at room temperature, terminated by collecting the membranes onto 384-well Millipore FB filter plates, and radioactivity was measured by TOPCOUNT®. The competition data of the test compounds over a range of concentrations was plotted as percentage inhibition of radioligand specific binding. The IC50 is defined as the concentration of competing ligand needed to reduce specific binding by 50%.

Experiment [2] concerns the target T1, S1P1. Nature of the experiment: Receptor [35S] GTPγS Binding Assay, S1P1. It counts as biochemical. The conditions noted are these: membranes from S1P1/CHO cells. Here is the method: (§1) Receptor [^35S] GTPγS Binding Assays:
(§2) Compounds were loaded in a 384 Falcon v-bottom plate (0.5 μl/well in an 11 point, 3-fold dilution). Membranes prepared from S1P1/CHO cells or EDG3-Gal5-bla HEK293T cells (EDG3 equivalent S1P3) were added to the compound plate ([…], final protein 3 μg/well) with MULTIDROP®. [^35S]GTP (1250 Ci/mmol, Perkin Elmer) was diluted in assay buffer: 20 mM HEPES, pH7.5, 10 mM MgCl2, 150 mM NaCl, 1 mM EGTA (ethylene glycol tetraacetic acid), 1 mM DTT (Dithiothreitol), 10 μM GDP, 0.1% fatty acid free BSA, and 10 μg/ml Saponin to 0.4 nM. 40 μl of the [35S] GTP solution was added to the compound plate with a final concentration of 0.2 nM. The reaction was kept at room temperature for 45 min. At the end of incubation, all the mixtures in the compound plate were transferred to Millipore 384-well FB filter plates via the VELOCITY11 ® Vprep liquid handler. The filter plate was washed with water 4 times by using the manifold Embla plate washer and dried at 60° C. for 45 min. MicroScint 20 scintillation fluid (30 μl) was added to each well for counting on the Packard TOPCOUNT®. EC50 is defined as the agonist concentration that corresponds to 50% of the Ymax (maximal response) obtained for each individual compound tested.
A smaller value for GTPγS S1P1 EC50 value indicated greater activity for the compound in the GTPγS S1P1 binding assay. Thus the compounds of the present invention may be used in treating, preventing, or curing various S1P1 receptor-related conditions. The compounds have potential use in treating, preventing, or curing autoimmune and inflammatory diseases such as multiple sclerosis, rheumatoid arthritis, inflammatory bowel disease, lupus, psoriasis, or minimizing or reducing rejection of transplanted organs.
(In general: GTPγS is a poorly hydrolysed GTP analogue; its binding reports G protein activation.)

Experiment [3] addresses S1P3 (Homo sapiens (Human), UniProt Q99500). Nature of the experiment: Receptor [35S] GTPγS Binding Assay, S1P3. It counts as biochemical. Particulars: membranes from EDG3-Gal5-bla HEK293T cells. Here is the method: as §1, §2

The record followed here is US11059784B2, “Oxime ether compounds” (BRISTOL-MYERS SQUIBB COMPANY, priority 2017, dated 2021).

S1P3, sequence (Q99500 whole entry): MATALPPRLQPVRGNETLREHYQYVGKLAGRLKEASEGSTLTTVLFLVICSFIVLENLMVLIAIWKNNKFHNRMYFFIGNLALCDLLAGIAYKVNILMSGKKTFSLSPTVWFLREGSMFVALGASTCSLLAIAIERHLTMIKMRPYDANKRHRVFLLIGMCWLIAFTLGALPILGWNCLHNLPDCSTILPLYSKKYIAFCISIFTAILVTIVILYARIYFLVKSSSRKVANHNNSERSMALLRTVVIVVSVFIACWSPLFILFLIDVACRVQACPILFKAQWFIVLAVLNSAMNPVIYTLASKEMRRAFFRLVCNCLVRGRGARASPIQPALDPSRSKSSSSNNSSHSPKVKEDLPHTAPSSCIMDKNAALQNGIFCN
T1 sequence (P21453 whole entry): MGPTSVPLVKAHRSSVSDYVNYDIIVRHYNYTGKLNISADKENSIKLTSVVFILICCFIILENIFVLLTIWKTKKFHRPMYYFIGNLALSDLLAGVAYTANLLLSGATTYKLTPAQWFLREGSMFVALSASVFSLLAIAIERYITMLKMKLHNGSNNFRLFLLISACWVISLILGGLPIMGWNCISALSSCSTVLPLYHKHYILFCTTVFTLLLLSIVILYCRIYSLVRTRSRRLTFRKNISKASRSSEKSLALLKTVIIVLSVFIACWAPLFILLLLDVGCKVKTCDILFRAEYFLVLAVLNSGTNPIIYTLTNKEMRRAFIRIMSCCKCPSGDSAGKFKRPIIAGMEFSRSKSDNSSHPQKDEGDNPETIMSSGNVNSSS

In the case of `C/C(=N\OCc1ccc(C2CCCCC2)c(C(F)(F)F)c1)c1ccc(C(=O)N2CCC(N)(COP(=O)(O)O)C2)cc1` (single isomer, unassigned) [Example 60, (E)-(3-amino-1-(4-(1-(((4-cyclohexyl-3-(trifluoromethyl)benzyl)oxy)imino)ethyl)benzoyl)pyrrolidin-3-yl)methyl dihydrogen phosphate], the IC50 – broadly, the concentration at which inhibition is half-maximal – in experiment [1] turned out to be 28.4 nM. Further, the EC50 (as a rule, the concentration at which the effect is half-maximal) in experiment [2] was 434 nM; in experiment [3], > 6250 nM.
On to `COc1cccc(CO/N=C(\C)c2ccc([C@@H]3CC[C@](N)(COP(=O)(O)O)C3)cc2)c1` [Example 50, ((1R,3R)-1-amino-3-(4-((E)-1-(((3-methoxybenzyl)oxy)imino)ethyl)phenyl)cyclopentyl) methyl dihydrogen phosphate], for which the IC50 in experiment [1] worked out at 563 nM. Moreover, the EC50 in experiment [2] is 630 nM; in experiment [3] it was > 60000 nM.
Take `C/C(=N\OCCc1ccccc1)c1ccc([C@@H]2CC[C@](N)(COP(=O)(O)O)C2)cc1` [Example 72, ((1R,3R)-1-amino-3-(4-((E)-1-(phenethoxyimino)ethyl)phenyl)cyclopentyl)methyl dihydrogen phosphate]: in experiment [1], the IC50 stood at 61.6 nM. The EC50 in experiment [2] was 91.5 nM; in experiment [3], > 30000 nM.
Molecule `C/C(=N\OCc1ccc(C2CCCCC2)c(C(F)(F)F)c1)c1ccc(C(=O)N2CCC(N)(COP(=O)(O)O)CC2)cc1` [Example 58, (E)-(4-amino-1-(4-(1-(((4-cyclohexyl-3-(trifluoromethyl)benzyl)oxy)imino)ethyl)benzoyl)piperidin-4-yl)methyl dihydrogen phosphate] came in with an IC50 in experiment [1] of 10.7 nM. The results for the 50% effective concentration (EC50) in experiment [2] and in experiment [3] were 60.8 nM and > 3120 nM, respectively.
In the case of `C/C(=N\OCc1ccc(C2CCCCC2)c(C(F)(F)F)c1)c1ccc(C(=O)N2CCC(N)(COP(=O)(O)O)C2)cc1` (single isomer, unassigned) [Example 59, (E)-(3-amino-1-(4-(1-(((4-cyclohexyl-3-(trifluoromethyl)benzyl)oxy)imino)ethyl)benzoyl)pyrrolidin-3-yl)methyl dihydrogen phosphate], the concentration for half-maximal inhibition (IC50) in experiment [1] was 10.5 nM. For the same molecule, the EC50 in experiment [2] was 136 nM; in experiment [3], > 3130 nM.
Taken in the same sequence, the figures for `C/C(=N\OCc1ccc(C2CCCCC2)c(C(F)(F)F)c1)c1ccc(C(=O)N2CCCC(N)(COP(=O)(O)O)C2)cc1` (single isomer, unassigned) [Example 67, (E)-(3-amino-1-(4-(1-(((4-cyclohexyl-3-(trifluoromethyl)benzyl)oxy)imino)ethyl)benzoyl)piperidin-3-yl)methyl dihydrogen phosphate] were 120 nM, 754 nM and > 18000 nM.
In the same order, the values of `C/C(=N\OCCCc1ccccc1)c1ccc(C(=O)N2CCC(N)(COP(=O)(O)O)C2)cc1` (single isomer, unassigned) [Example 61, (E)-(3-amino-1-(4-(1-((3-phenylpropoxy)imino)ethyl)benzoyl)pyrrolidin-3-yl)methyl dihydrogen phosphate] are 126 nM, 204 nM and > 6250 nM.
Taken in the same sequence, the figures for `C/C(=N\OCCc1ccccc1)c1ccc(C2CC[C@](N)(COP(=O)(O)O)C2)cc1` (stereo in doubt) [Example 73, ((1R,3R)-1-amino-3-(4-((E)-1-(phenethoxyimino)ethyl)phenyl)cyclopentyl)methyl dihydrogen phosphate] were 49.6 nM, 44.4 nM and > 30000 nM.
On to `C/C(=N\OCCCc1ccccc1)c1ccc(C(=O)N2CCC(N)(COP(=O)(O)O)CC2)cc1` [Example 57, (4-amino-1-(4-(1-((3-phenylpropoxy)imino)ethyl)benzoyl)piperidin-4-yl)methyl dihydrogen phosphate], for which, in experiment [1], the IC50 is 1870 nM. In addition, the concentration for a half-maximal effect (EC50) in experiment [2] is 324 nM; in experiment [3], > 60000 nM.
As to `CC(=NOCCCc1ccccc1)c1ccc([C@H]2CC[C@](N)(COP(=O)(O)O)C2)cc1` [Example 52], in experiment [1], the IC50 turned out to be 31.9 nM. Moreover, the half-maximal effective concentration (EC50) in experiment [2] was 1.1 nM; in experiment [3], > 30000 nM.
In turn, `CC(=NOCc1ccccc1)c1ccc([C@@H]2CC[C@](N)(COP(=O)(O)O)C2)cc1` [Example 39, ((1R,3R)-1-amino-3-(4-(1-((benzyloxy)imino)ethyl)phenyl)cyclopentyl)methyl dihydrogen phosphate] came in with an IC50 in experiment [1] of 865 nM.
As to `CC/C(=N\OCCCc1ccccc1)c1ccc(C(=O)N2CCC(N)(COP(=O)(O)O)C2)cc1` (single isomer, unassigned) [Example 63, (E)-(3-amino-1-(4-(1-((3-phenylpropoxy)imino)propyl)benzoyl)pyrrolidin-3-yl) methyl dihydrogen phosphate], the half-inhibitory concentration (IC50) in experiment [1] amounted to 183 nM. Moreover, the EC50 in experiment [2] is 342 nM; in experiment [3], > 6250 nM.
In the same order, the values of `CC(=NOCc1ccc(C(F)(F)F)cc1)c1ccc([C@@H]2CC[C@](N)(COP(=O)(O)O)C2)cc1` [Example 45, ((1R,3R)-1-amino-3-(4-(1-(((4-(trifluoromethyl)benzyl)oxy)imino)ethyl)phenyl)cyclopentyl)methyl dihydrogen phosphate] are 2.7 nM, 5.6 nM and > 60000 nM.
`CC(=NOCC1CCCCC1)c1ccc([C@@H]2CC[C@](N)(COP(=O)(O)O)C2)cc1` [Example 44] had a 50% inhibitory concentration (IC50) in experiment [1] of 15.1 nM. In addition, the EC50 is 20.3 nM in experiment [2] and > 60000 nM in experiment [3].
With `CC(=NOCCc1ccccc1)c1ccc(C(=O)N2CCC(N)(COP(=O)(O)O)C2)cc1` (stereo not drawn) [Example 55, (3-amino-1-(4-(1-(phenethoxyimino)ethyl)benzoyl)pyrrolidin-3-yl)methyl Dihydrogen Phosphate], the 50% effective concentration (EC50) was 1560 nM in experiment [2] and > 60000 nM in experiment [3].
In turn, `C/C(=N\OCCCc1ccccc1)c1ccc(C(=O)N2CCCC(N)(COP(=O)(O)O)C2)cc1` (single isomer, unassigned) [Example 69, (E)-(3-amino-1-(4-(1-((3-phenylpropoxy)imino)ethyl)benzoyl)piperidin-3-yl)methyl dihydrogen phosphate] came in with an IC50 in experiment [1] of 899 nM. Also, the concentration for a half-maximal effect (EC50) in experiment [2] was determined as 767 nM.
With `C/C(=N\OCCc1ccccc1)c1ccc(C(=O)N2CCC(N)(COP(=O)(O)O)CC2)cc1` [Example 56, (4-amino-1-(4-(1-(phenethoxyimino)ethyl)benzoyl)piperidin-4-yl)methyl dihydrogen phosphate], the concentration for a half-maximal effect (EC50) in experiment [2] is 295 nM; in experiment [3] it was > 60000 nM.
For `COc1cccc(/C(C)=N/OCc2ccc([C@H]3CC[C@](N)(COP(=O)(O)O)C3)cc2)c1` [Example 54, ((1R,3S)-1-amino-3-(4-(((((E)-1-(3-methoxyphenyl)ethylidene)amino)oxy)methyl)phenyl)cyclopentyl) methyl dihydrogen phosphate], the 50% inhibitory concentration (IC50) in experiment [1] stood at 14.2 nM.
In the case of `CC(=NOCc1ccc([N+](=O)[O-])cc1)c1ccc([C@@H]2CC[C@](N)(COP(=O)(O)O)C2)cc1` [Example 42, ((1R,3R)-1-amino-3-(4-(1-(((4-nitrobenzyl)oxy)imino)ethyl)phenyl)cyclopentyl) methyl dihydrogen phosphate], the EC50 in experiment [2] is 17.6 nM; in experiment [3], > 30000 nM.
Turning to `CC(=NOCc1ccc(F)cc1)c1ccc([C@@H]2CC[C@](N)(COP(=O)(O)O)C2)cc1` [Example 43, ((1R,3R)-1-amino-3-(4-(1-(((4-fluorobenzyl)oxy)imino)ethyl)phenyl)cyclopentyl) methyl dihydrogen phosphate], the figures for the EC50 in experiment [2] and in experiment [3] were 26.4 nM and > 30000 nM, respectively.
